# Assay results taken from patent US7183091B2, “Sulfite reductase, the process for producing the same and the use thereof” (Nugen Bioscience (Taiwan) Co., Ltd., priority 2003, dated 2007).
# Like-named read-outs stand apart in the source and are kept apart here.
# Assays:
# [1] = tested on: sulfite reductase from Escherichia coli; assay: Effects of metal ions, inhibitors and reducing agents on enzyme activity; assay type: biochemical
# Protocol: (§1) […]. To 0.9 mL reaction mixture [0.1 M phosphate buffer (pH 7.7) containing 0.5 mM EDTA, 0.5 mM NaHSO3, 1 μM FMN, and 0.2 mM NADPH], 0.1 mL of reductase was added and incubated at 25° C. The activity was determined according to the initial velocity after the addition of reductase and corrected by the slow oxidation of NADPH in the absence of sulfite. One activity unit was defined as the amount of enzyme which catalyzed the oxidation of 1 μmol NADPH within 1 minute reaction 25° C. under the above condition.
# [2] = molecular target: T1, sulfite reductase from Saccharomyces cerevisiae (Saccharomyces cerevisiae, UniProt P39692+P47169); assay: as above; assay type: biochemical; conditions: for effect of metal ions on catalytic activity: metals 0.5, 1.0, 5.0 and 10.0 mM
# T1 construct: Saccharomyces cerevisiae cell was collected by 30 min centrifugation at 4,000×g; made in house; host or cells: endogenous enzyme purified from cultured Saccharomyces cerevisiae cells (not recombinant)
# T1 sequence (P47169 1-1442): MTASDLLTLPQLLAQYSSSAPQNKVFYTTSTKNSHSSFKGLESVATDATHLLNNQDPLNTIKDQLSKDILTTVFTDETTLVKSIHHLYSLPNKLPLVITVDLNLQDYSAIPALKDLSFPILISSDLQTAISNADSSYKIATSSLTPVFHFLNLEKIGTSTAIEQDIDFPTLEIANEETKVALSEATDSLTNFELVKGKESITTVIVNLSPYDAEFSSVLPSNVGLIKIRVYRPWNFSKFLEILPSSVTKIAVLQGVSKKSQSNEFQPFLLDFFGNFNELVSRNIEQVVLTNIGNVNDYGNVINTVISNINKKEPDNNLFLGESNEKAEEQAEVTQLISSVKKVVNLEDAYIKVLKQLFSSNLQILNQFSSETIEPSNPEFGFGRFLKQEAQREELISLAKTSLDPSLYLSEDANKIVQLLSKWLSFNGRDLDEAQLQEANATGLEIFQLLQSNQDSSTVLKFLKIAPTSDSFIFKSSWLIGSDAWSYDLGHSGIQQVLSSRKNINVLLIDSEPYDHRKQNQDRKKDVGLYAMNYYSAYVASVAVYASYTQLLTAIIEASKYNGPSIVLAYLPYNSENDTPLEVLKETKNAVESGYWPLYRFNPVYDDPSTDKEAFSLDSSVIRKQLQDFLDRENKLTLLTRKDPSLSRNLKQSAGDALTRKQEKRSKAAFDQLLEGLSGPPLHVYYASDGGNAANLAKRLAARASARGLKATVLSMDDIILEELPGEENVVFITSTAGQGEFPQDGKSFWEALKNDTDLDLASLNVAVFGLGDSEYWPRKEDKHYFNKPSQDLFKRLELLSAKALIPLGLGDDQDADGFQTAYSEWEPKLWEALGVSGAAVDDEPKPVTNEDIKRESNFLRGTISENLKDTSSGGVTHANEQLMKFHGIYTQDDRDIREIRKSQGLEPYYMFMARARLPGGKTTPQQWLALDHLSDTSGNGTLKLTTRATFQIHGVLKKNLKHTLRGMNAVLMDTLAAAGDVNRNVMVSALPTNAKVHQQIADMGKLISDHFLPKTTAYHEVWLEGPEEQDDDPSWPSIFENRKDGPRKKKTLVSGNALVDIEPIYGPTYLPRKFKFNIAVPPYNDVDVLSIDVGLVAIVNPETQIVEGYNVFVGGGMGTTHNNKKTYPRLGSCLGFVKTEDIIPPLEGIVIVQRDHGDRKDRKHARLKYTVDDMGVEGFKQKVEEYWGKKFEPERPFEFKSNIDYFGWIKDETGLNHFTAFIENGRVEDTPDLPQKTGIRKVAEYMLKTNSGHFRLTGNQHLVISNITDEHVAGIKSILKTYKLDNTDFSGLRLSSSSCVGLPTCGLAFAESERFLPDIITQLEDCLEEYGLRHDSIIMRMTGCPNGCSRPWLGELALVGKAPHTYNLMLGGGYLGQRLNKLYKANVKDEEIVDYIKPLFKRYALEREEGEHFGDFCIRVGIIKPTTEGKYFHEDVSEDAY
# T1 sequence (P39692 1-1035): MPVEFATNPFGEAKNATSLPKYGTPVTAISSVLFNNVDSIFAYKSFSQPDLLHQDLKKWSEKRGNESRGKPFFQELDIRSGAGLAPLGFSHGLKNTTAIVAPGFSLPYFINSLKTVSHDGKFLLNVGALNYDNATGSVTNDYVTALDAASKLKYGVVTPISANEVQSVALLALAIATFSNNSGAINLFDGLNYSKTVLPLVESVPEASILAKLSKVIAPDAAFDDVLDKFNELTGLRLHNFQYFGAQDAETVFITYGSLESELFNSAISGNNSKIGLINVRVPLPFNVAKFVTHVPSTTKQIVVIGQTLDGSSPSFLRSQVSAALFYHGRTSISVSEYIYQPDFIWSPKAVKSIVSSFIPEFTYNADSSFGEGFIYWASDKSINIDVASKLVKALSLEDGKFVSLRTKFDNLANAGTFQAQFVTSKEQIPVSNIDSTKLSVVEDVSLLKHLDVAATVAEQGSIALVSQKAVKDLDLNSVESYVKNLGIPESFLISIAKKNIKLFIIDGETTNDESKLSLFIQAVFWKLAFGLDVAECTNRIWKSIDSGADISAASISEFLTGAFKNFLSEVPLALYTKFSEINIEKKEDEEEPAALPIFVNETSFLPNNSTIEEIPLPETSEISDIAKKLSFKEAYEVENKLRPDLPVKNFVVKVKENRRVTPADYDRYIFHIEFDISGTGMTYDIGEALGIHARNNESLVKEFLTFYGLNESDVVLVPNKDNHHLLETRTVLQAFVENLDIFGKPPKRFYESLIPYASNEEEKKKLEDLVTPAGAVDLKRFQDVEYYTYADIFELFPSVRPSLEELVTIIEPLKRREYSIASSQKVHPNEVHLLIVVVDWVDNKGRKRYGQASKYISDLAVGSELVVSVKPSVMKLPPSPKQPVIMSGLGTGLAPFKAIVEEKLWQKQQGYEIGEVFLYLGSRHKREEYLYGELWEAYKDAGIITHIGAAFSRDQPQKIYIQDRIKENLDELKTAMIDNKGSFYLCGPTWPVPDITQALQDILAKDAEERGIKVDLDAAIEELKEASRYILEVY
# Protocol: as §1
# [3] = Determination of sulfite reductase activity (oxidation of NADPH by sulfite, 340 nm); assay type: biochemical
# Protocol: The sulfite reductase activity was measured spectrophotometrically at 340 nm under aerobic conditions by following the oxidation of NADPH by sulfite according to the method of determining enzyme activity of Siegel and others (1973). To 0.9 mL reaction mixture [0.1 M phosphate buffer (pH 7.7) containing 0.5 mM EDTA, 0.5 mM NaHSO3, 1 μM FMN, and 0.2 mM NADPH], 0.1 mL of reductase was added and incubated at 25° C. The activity was determined according to the initial velocity after the addition of reductase and corrected by the slow oxidation of NADPH in the absence of sulfite. One activity unit was defined as the amount of enzyme which catalyzed the oxidation of 1 μmol NADPH within 1 minute reaction 25° C. under the above condition.
# [4] = Optimal pH value of the sulfite reductase; assay type: biochemical; conditions: 25° C., 5 minutes
# Protocol: Optimal pH value. To 0.9 mL reaction mixture with various pHs (0.2 M citrated buffer: pH 4.0 to 6.0; 0.2 M phosphate buffer: pH 6.0 to 8.0 and 0.2 M bicarbonate buffer: pH 8.0 to 10,0; all buffers containing 0.5 mM EDTA, 0.5 mM NaHSO3, 1 μM FMN, and 0.2 mM NADPH), 0.1 mL of reductase was added and incubated at 25° C. for 5 minutes. The activity was determined from initial velocity and corrected by the oxidation of NADPH in the absence of sulfite according the method of Siegel and others (1973).
# [5] = Stability of low temperature storage of the enzyme solution; assay type: physicochemical
# Protocol: The enzyme solution was stored at 4° C. and −20° C., respectively. The residue enzyme activity was determined per constant time interval to test the stability of low-temperature storage.
# [6] = Optimal temperature of the sulfite reductase; assay type: biochemical; conditions: pH 7.7, 5 minutes
# Protocol: Optimal temperature. To 0.9 mL reaction mixture [0.1 M phosphate buffer (pH 7.7) containing 0.5 mM EDTA, 0.5 mM NaHSO3, 1 μM FMN, and 0.2 mM NADPH], 0.1 mL of reductase was added and incubated at various temperatures (5, 10, 15, 20, 25, 30, 35, 40, 45, 50, 55 and 60° C.) for 5 minutes. The activity was determined from initial velocity and corrected by the oxidation of NADPH in the absence of sulfite according the method of Siegel and others (1973).
# [7] = metals 0.5, 1.0, 5.0 and 10.0 mM, 25° C., 30 minutes
# [8] = inhibitor 1.0 mM, 25° C., 30 minutes
Compound,"effect of metal ions on catalytic activity ([2]; 25° C., 30 minutes)","effect of metal ions on catalytic activity [1, 7]",further results
OCCS [β-mercaptoethanol],–,–,effect of reducing agents on enzyme activity [1]: improved the activity; effect of reducing agents on enzyme activity [2]: improved the activity
[Pb+2] [Pb^2+],strongly inhibited,–,–
O[C@H](CS)[C@H](O)CS (racemic) [dithiothreitol],–,–,effect of reducing agents on enzyme activity [1]: improved the activity; effect of reducing agents on enzyme activity [2]: improved the activity
[Cu+2] [Cu^2+],strongly inhibited,strongly inhibited,–
"O=C(O)CI [IAA, Iodoacetate]",–,–,effect of inhibitors on catalytic activity [1]: partially; effect of inhibitors on catalytic activity [2]: partially
N[C@@H](CCC(=O)N[C@@H](CS)C(=O)NCC(=O)O)C(=O)O [glutathione],–,–,effect of reducing agents on enzyme activity [1]: improved the activity; effect of reducing agents on enzyme activity [2]: improved the activity
"CCN1C(=O)C=CC1=O [NEM, N-ethylmaleimide]",–,–,"effect of inhibitors on catalytic activity [1, 8]: partially; effect of inhibitors on catalytic activity [2, 8]: partially"
[Co+2] [Co^2+],partially,strongly inhibited,–
[Fe+2] [Fe^2+],partially,strongly inhibited,–
"O=C(O)c1cc[c]([Hg][Cl])cc1 [PCMB, p-chloromercuribenzoate]",–,–,"effect of inhibitors on catalytic activity [1, 8]: completely inhibited; effect of inhibitors on catalytic activity [2, 8]: completely inhibited"
[Na+] [Na^+],did not affect the enzyme activity,did not affect the enzyme activity,–
N[C@@H](CS)C(=O)O [cysteine],–,–,effect of reducing agents on enzyme activity [1]: improved the activity; effect of reducing agents on enzyme activity [2]: improved the activity
[Mn+2] [Mn^2+],partially,moderately,–
"O=S(=O)(O)c1cc[c]([Hg][Cl])cc1 [PCMPS, p-chloromercuriphenylsulfonic acid]",–,–,"effect of inhibitors on catalytic activity [2, 8]: completely inhibited"
[Hg+2] [Hg^2+],strongly inhibited,strongly inhibited,–
[K+] [K^+],did not affect the enzyme activity,–,effect of metal ions on catalytic activity [1]: did not affect the enzyme activity
[Ba+2] [Ba^2+],partially,moderately,–
[Ca+2] [Ca^2+],did not affect the enzyme activity,strongly inhibited,–
"sulfite reductase from Saccharomyces cerevisiae: purified sulfite reductase from Saccharomyces cerevisiae (CCRC 22223), molecular weight 358,000",–,–,"specific activity ([3]; Table 2, purification steps of the Saccharomyces cerevisiae enzyme): 1.34 units/mg; specific activity ([3]; purified enzyme, 25° C., pH 7.7): 1.34 units/mg; optimum pH [4]: 7.3; enzyme activity after storage ([5]; enzyme solution stored for 2 months at −20° C.): nearly not changed; enzyme activity after storage ([5]; enzyme solution stored for 28 days at 4° C.): 77.8%; optimum temperature [6]: 25 °C"
[Ni+2] [Ni^2+],partially,–,–
[Zn+2] [Zn^2+],strongly inhibited,moderately,–
"O=S(=O)(F)Cc1ccccc1 [PMSF, phenylmethylsulfonyl fluoride]",–,–,"effect of inhibitors on catalytic activity [1, 8]: partially; effect of inhibitors on catalytic activity [2, 8]: partially"
[Mg+2] [Mg^2+],did not affect the enzyme activity,did not affect the enzyme activity,–
[Cd+2] [Cd^2+],–,moderately,–
